# From PubChem BioAssay (NCI)
#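 Step 1: Grow cells in 96-well plates. Step 2: Expose to compound for 48 hours at 5 concentrations. Step 3: Interpolate endpoints linearly; if unreached, use highest concentration. TGI marks complete inhibition of growth.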
# Assays:
# Assay in all cases: NCI anticancer screen, dose series, 48 h
# HL-60(TB) leukemia = test system: HL-60(TB) leukemia
# SN12C renal = test system: SN12C renal
# BT-549 breast = test system: BT-549 breast
# RXF 393 renal = test system: RXF 393 renal
# OVCAR-3 ovarian = test system: OVCAR-3 ovarian
# MOLT-4 leukemia = test system: MOLT-4 leukemia
# SK-OV-3 ovarian = test system: SK-OV-3 ovarian
# MDA-N = test system: MDA-N
# SF-295 CNS = test system: SF-295 CNS
# U251 CNS = test system: U251 CNS
# RPMI-8226 leukemia = test system: RPMI-8226 leukemia
# KM12 colon = test system: KM12 colon
# MCF7 breast = test system: MCF7 breast
# OVCAR-4 ovarian = test system: OVCAR-4 ovarian
# HCT-116 colon = test system: HCT-116 colon
# OVCAR-5 ovarian = test system: OVCAR-5 ovarian
# NCI-H23 lung = test system: NCI-H23 lung
# HCC-2998 colon = test system: HCC-2998 colon
# A498 renal = test system: A498 renal
SMILES,TGI (HL-60(TB) leukemia),TGI (SN12C renal),TGI (BT-549 breast),TGI (RXF 393 renal),TGI (OVCAR-3 ovarian),TGI (MOLT-4 leukemia),TGI (SK-OV-3 ovarian),TGI (MDA-N),TGI (SF-295 CNS),TGI (U251 CNS),TGI (RPMI-8226 leukemia),TGI (KM12 colon),TGI (MCF7 breast),TGI (OVCAR-4 ovarian),TGI (HCT-116 colon),TGI (OVCAR-5 ovarian),TGI (NCI-H23 lung),TGI (HCC-2998 colon),TGI (A498 renal)
CCCCCCCC(CC(=O)NC(CO)C(=O)NC(CO)CC(C)C)OC(=O)CC(CCCCCCC)OC(=O)CC(CCCCCCC)OC1OC(C)C(O)C(OC2OC(C)C(O)C(O)C2O)C1O (stereo not drawn),10.5 µM,28.7 µM,28.8 µM,31.2 µM,26.9 µM,28.2 µM,31.5 µM,20.5 µM,27.1 µM,24.7 µM,8.96 µM,26.3 µM,> 52.3 µM,28 µM,20.8 µM,26 µM,30 µM,43.1 µM,35 µM
Nc1nc(Br)nc2ncn(C3CC(O)C(CO)O3)c12 (stereo not drawn),9.35 µM,> 100 µM,> 100 µM,> 100 µM,> 100 µM,0.202 µM,> 100 µM,> 100 µM,> 100 µM,> 100 µM,> 100 µM,> 100 µM,> 100 µM,> 100 µM,> 100 µM,> 100 µM,> 53 µM,> 100 µM,> 100 µM
Cc1[nH]c2nc3c(ncn3COCCO)c(=O)n2c1C(c1ccccc1)(c1ccccc1)c1ccccc1,44.4 µM,33 µM,2.22 µM,26.2 µM,15.4 µM,24.3 µM,32.8 µM,29.2 µM,34.2 µM,28 µM,45.5 µM,28.5 µM,23.1 µM,30.4 µM,29.3 µM,32.7 µM,23.1 µM,26.4 µM,33.3 µM
Cc1cc(C)c(S(=O)(=O)N(CCCN)OCCON(CCCN)S(=O)(=O)c2c(C)cc(C)cc2C)c(C)c1,> 21.9 µM,> 100 µM,66.2 µM,> 100 µM,3.93 µM,> 100 µM,24.8 µM,8.22 µM,67 µM,> 100 µM,6.33 µM,4.49 µM,> 100 µM,10.3 µM,5.1 µM,4.99 µM,7.11 µM,4.24 µM,53.9 µM
COc1ccccc1N1C(=O)CSC1c1cc(OC)c(OC)c(OC)c1 (stereo not drawn),97.7 µM,> 100 µM,98.3 µM,> 100 µM,> 100 µM,> 100 µM,> 100 µM,44.7 µM,> 100 µM,> 100 µM,> 100 µM,> 100 µM,> 100 µM,> 100 µM,> 100 µM,> 100 µM,> 100 µM,> 100 µM,> 100 µM
CSC1=C(C#N)C(=O)N(c2ccc(C)cc2)C(=O)C1C#N (stereo not drawn),> 100 µM,> 100 µM,> 100 µM,> 100 µM,> 100 µM,> 100 µM,> 100 µM,> 100 µM,> 100 µM,> 100 µM,> 100 µM,> 100 µM,> 100 µM,> 100 µM,> 100 µM,> 100 µM,> 100 µM,> 100 µM,> 100 µM
O=C1CCSc2nc(-c3ccc4c(c3)OCO4)nn21,> 10 µM,> 10 µM,> 10 µM,> 10 µM,> 10 µM,> 10 µM,> 10 µM,> 10 µM,> 10 µM,> 10 µM,> 10 µM,> 10 µM,> 10 µM,> 10 µM,> 10 µM,> 10 µM,> 10 µM,> 10 µM,> 10 µM
